Here are results for 4 compounds from ChEMBL document CHEMBL5260811, “Drug development against tuberculosis: Impact of alkaloids” (Eur J Med Chem, 2017).

Assay [1] has as its system Mycobacterium tuberculosis variant bovis. The assay is described as follows: Antimycobacterial activity against Mycobacterium bovis. It is filed as functional.
The test system is the same in assay [2]. The assay is described as follows: Antimycobacterial activity against Mycobacterium bovis BCG. It is filed as functional.

With `OC1CCCC/C=C\CCCC[C@@H]2CN3CCCC/C=C\CCCC[C@H]4C[C@H](CN(C1)C4)[C@H]2CC3` (some centres undefined), in assay [1], the IC is 12.5 µg/mL. On to `C(=N\Nc1nncs1)/c1c[nH]c2ccccc12`, for which, in assay [2], the IC came to 7.81 µg/mL. With `C1=C\CCCC[C@@H]2CN3CCCC/C=C\CCCC[C@H]4C[C@H](CN(CCCCCC/1)C4)[C@H]2CC3`, the IC in assay [1] turned out to be 1 µg/mL.

`C1=C\CCCCN2C[C@H]3CCCC/C=C\CCCCN4CC[C@@H]([C@H](CCCCCC/1)C4)[C@H](C3)C2`: in assay [1], the IC is 2.5 µg/mL.
